Reference: US20020156301A1, “Triphenylmethane derivatives and use thereof” (Sumitomo Chemical Co., Ltd., priority 1997, published 2002)
Marks after values point to notes of the source that are not given here.

Legend:
[1] = tested on: α- and β-isoforms of human estrogen receptor; assay: Antiestrogenic activity: ERE-luciferase reporter in HeLa cells transfected with hERα or hERβ, with 17β-estradiol; assay type: cell-based; conditions: relative luminescence for β-isoform divided by that for α-isoform, 17β-estradiol 100 pM (α), 1 nM (β)
Text: cDNA fragments for α- and β-isoforms of human estrogen receptor were cloned from a human liver cDNA library (Toyobo Co, Ltd.) by RT-PCR using oligonucleotides having the following base sequences as primers. For cloning the a-isoform, oligonucleotides 5′-[…]-3′ and 5′-[…]-3′ were used, while oligonucleotides 5′-[…]-3′ and 5′-[…]-3′ were used for cloning the β-isoform. The CDNA fragments for the α- and β-isoforms obtained by the RT-PCR procedures were blunt-ended, and each inserted into a vector for expression pRc/RSV (Invitrogen) at its blunt-ended Hind III cleavage site to obtain expression plasmids pRc-RSV-hERα and pRc-RSV-hERβ. In addition, an oligonucleotide 5′-[…]-3′ comprising an estrogen response element was inserted into a vector pGV-P (Toyo Ink Mfg. Co., Ltd.) at the Sma I cleavage site to obtain a luciferase reporter plasmid pGV-ERE.
Separately, HeLa cells which had been subcultured in Eagle's MEM medium containing 10% (v/v) phenol red-free and active charcoal-treated serum were inoculated in 24-well plates (φ16 mm well) at a density of 40,000 cells/well, cultured for 24 hours at 37° C. in the presence of 5% CO2, and then the medium was exchanged with serum-free Eagle's MEM medium.
The above expression plasmid pRc-RSV-hERα or pRc-RSV-hERβ, and the luciferase reporter plasmid pGV-ERE incorporating the estrogen response element were transfected into the above HeLa cells using the lipofectin method. Specifically, 0.3 μg of the expression plasmid pRc-RSV-hERα or pRc-RSV-hERβ, 0.1 μg of pGV-ERE, and 0.35 μl of Lipofectin mixed together, and added to the above HeLa cells. The HeLa cells were then cultured for 6 hours at 37° C. in the presence of 5% CO2. Next, the medium was exchanged with Eagle's MEM medium containing 10% serum (active charcoal-treated), and the cultivation was continued overnight at 37° C. under 5% CO2. Furthermore, the medium was exchanged with Eagle's MEM medium containing 10% serum (active charcoal-treated) which had been further supplemented with a solution of a test compound in DMSO (or DMSO alone) and 17β-estradiol (final concentration: 100 pM for the α-isoform, and 1 nM for the β-isoform), and the cells were cultured for 48 hours. After removing the medium and washing the cells twice with PBS(−), 50 μl/well of a lysis solution was added, and the cells were lysed at room temperature. An aliquot of this cell lysate was mixed with a luciferase assay substrate solution (Toyo Ink Mfg. Co., Ltd.), and the luminescence was measured using a luminometer. For each of α- and β-isoforms of estrogen receptor, the relative value of luminescence obtained in each experiment in which 17β-estradiol and a solution of one of test compounds in DMSO were added was then calculated, considering the luminescence obtained when 17β-estradiol and DMSO were added as 100. Next, the antiestrogenic activity (β/α) was calculated by dividing the relative value thus obtained for the β-isoform by that for the α-isoform.

[2] = tested on: ovariectomized rats; assay: Effects on ovariectomized rat: bone mineral density of tibial epiphysis; assay type: in vivo; conditions: 17 administrations, average for 5-8 animals, OVX control 79.9
Text: Six-weeks old female SD rats (Charles River Japan) were subjected to ovariectomy of right and left ovaries, after one-week pre-feeding. Firstly, the hairs around the both flanks of the rats were shaved away. After anesthetizing the rat with diethyl ether, the area around the flanks was disinfected, and incised about 1 cm below the last ribs. The ovaries and uterus were extracted along with fats through the incision, and the ovaries were excised after ligating between ovaries and uterus with suture. The uterus and fats were then returned into the abdomens, and the incision was sutured. For rats receiving mock operations, ovaries were extracted as described above, and then returned into the abdomens as they were without ligature and excision. The rats which received such operations were divided into groups of four animals, and each group was housed in a polypropylene cage, and fed with chow (CRF-1; Charles River Japan) and water ad libitum.
A compound was weighed out into a mortar, and the crystals were finely ground with a pestle. To the ground compound, 1% hydroxypropyl cellulose (HPC, 150-400 cP) was then added in small amounts while rubbing for suspending and mixing the compound to prepare an administration liquid having a given concentration of the compound. Such liquids for administration were newly prepared every week.
The weights of ovariectomized rats described above were measured at an interval of one week, and the doses of the above liquid for administration were determined based on the weights. The same doses were used for one week until the next weight measurement. Administration to rats was started at one week after the ovariectomy, and the above liquids for administration were orally administered 17 times in total to groups of 5-8 animals through a 2 ml volume syringe attached with a metal sonde and once a day at a frequency of 5 times a week. […] The bone mineral density of the tibial epiphysis proximal to the knee was measured by an area scanning method.

[3] = tested on: Rat osteoblastic cell line UMR 106; assay: Effects on osteoblast: ALP activity and TGFβ amount; assay type: cell-based; conditions: two days, corrected for protein; for ALP activity, relative value considering the value for control as 1: UMR 106 cells; for TGFβ, relative value considering the value for control as 1: UMR 106 medium supernatant
Description: Rat osteoblastic cell line UMR 106 was subcultured in Eagle's MEM medium containing 10% fetal bovine serum (active charcoal-treated), inoculated in 6-well plates (φ 36 mm well) at a density of 20,000 cells/well, and cultured overnight in 2 ml/well of the same serum-containing Eagle's MEM medium at 37° C. in the presence of 5% CO2. On the following day, the medium was aspirated, and the wells were washed by adding 1 ml/well of serum-free Eagle's MEM medium supplemented with Supplement A (a solution of insulin, transferrin, and selenium; Gibco BRL). After aspirating the washings, 2 ml/well of serum-free Eagle's MEM medium supplemented with Supplement A was newly added, and the cultivation was further continued at 37° C. Two days after the medium exchange, the medium was aspirated from each well. Into the wells, 2 ml/well of serum-free Eagle's MEM medium containing Supplement A to which a solution of a test compound in DMSO (or DMSO alone) had been added and mixed was then added, and the cultivation was further continued at 37° C. Two days after the addition of compound, the medium was collected, centrifuged (14,000 rpm, 5 minutes), and the supernatant was aliquoted. To each 0.6 ml aliquot, 20 μl of 1N HCl was added, mixed and then they were stored with ice-cooling. On the other hand, the wells from which the medium had been removed were washed twice with PBS (−). After thoroughly removing the residual liquid, 0.5 ml/well of extra pure water was added, and the cells were harvested, and stored at −80° C. The ice-cold medium supernatant described above was neutralized with 1N NaOH, and 100 μl aliquot thereof was sampled, and used in quantifying TGFβ using an ELISA kit for TGFβ (Biochemical Research Institute, Morinaga Milk Industry Co. Ltd.). On the other hand, the frozen cells were thawed by bringing them to room temperature. The cell suspension thus obtained by thawing the frozen cells was then centrifuged (14,000 rpm, 5 minutes), and 50 μl of the supernatant was used in measurement of alkaline phosphatase (ALP) activity. ALP activity was measured according to the method of Lowry [J. Biol. Chem. vol. 207, 19-37 (1954)]. The samples remained without being used for measurements of TGFβ and ALP activity were used in quantification of protein according to the method of Lowry [J. Biol. Chem. vol. 193, 265-275 (1951)].
The relative values for the amount of TGFβ and the ALP activity after correcting for the amounts of protein are shown in Table 2.

Molecule | Antiestrogenic activity (β/α) ([1]; compound 0.1 μM) | Antiestrogenic activity (β/α) ([1]; compound 1 μM) | Antiestrogenic activity (β/α) ([1]; compound 10 μM) | Bone mineral density ([2]; 50 mg/kg-weight/day oral) | ALP activity, relative value considering the value for control as 1 ([3]; compound 0.1 μM) | TGFβ, relative value considering the value for control as 1 ([3]; compound 0.1 μM) | ALP activity, relative value considering the value for control as 1 ([3]; compound 1 μM) | TGFβ, relative value considering the value for control as 1 ([3]; compound 1 μM) | Bone mineral density ([2]; 0.1 mg/kg-weight/day oral)
Cc1cc(C(c2cccc(OCCN(C)C)c2)c2cc(C)c(O)c(C)c2C)c(C)c(C)c1O [Compound 3] | 2.6 | 4.0 | 2.0 |  |  |  |  |  | 
Cc1cc(C(c2cccc(OCCN(C)C)c2)c2cc(C)c(O)cc2C)c(C)cc1O [Compound 2, bis(2,5-dimethyl-4-hydroxyphenyl)[3-(2-dimethylamino-1-ethoxy)phenyl]methane] | 19 | 5.5 | 2.3 | 91.2* mg/cm^2 | 1.5 |  |  |  | 
Cc1cc(C(c2ccc(OCCN(C)C)cc2)c2cc(C)c(O)cc2C)c(C)cc1O [Compound 1, bis(2,5-dimethyl-4-hydroxyphenyl)[4-(2-dimethylamino-1-ethoxy)phenyl]methane] | 5.2 | 8.6 | 3.0 | 88.0* mg/cm^2 | 2.0 | 1.4 | 5.4 | 1.1 | 
C#C[C@]1(O)CC[C@H]2[C@@H]3CCc4cc(O)ccc4[C@H]3CC[C@@]21C [ethinyl estradiol, reference compound] |  |  |  |  |  |  |  |  | 88.6* mg/cm^2
Cc1cc(C(c2cccc(OCCN(C)C)c2)c2cc(C)c(O)c(C)c2)cc(C)c1O [Compound 5] |  | 8.4 | 5.0 |  |  |  |  |  | 
Cc1cc(C(c2ccc(OCCN(C)C)cc2)c2cc(C)c(O)c(C)c2)cc(C)c1O [Compound 4] | 1.5 | 14 | 5.0 |  |  |  |  |  | 
Hydroxytamoxifen [reference compound] | 1.3 | 1.9 | 1.5 |  |  |  |  |  | 
